Results from patent publication US20260265262A1, “CDK2 INHIBITORS AND METHODS OF USING THE SAME” (Cedilla Therapeutics, Inc., priority 2022, published 2026).
Like-named read-outs stand apart in the source and are kept apart here.

What was measured:
[1] = biological target: CDK2/Cyclin E1 (Homo sapiens, UniProt P24941); experiment: ADP-Glo Luminescent Kinase Assay (CDK2/E1-37C); type: biochemical; conditions: 0.18 nM CDK2/Cyclin E1, 100 μM ATP, 1.5 μM Histone H1, 37° C., 60 min pre-incubation
Protocol: Inhibition of CDK2/Cyclin E1 activity by the presence of small molecules was evaluated using ADP-Glo Luminescent Kinase Assay (Promega). Activated CDK2/Cyclin E1 was incubated with its substrate Histone H1 (SignalChem H10-54N) in the kinase reaction buffer (100 μM ATP, 50 mM HEPES pH 7.5, 10 mM MgCl2, 1 mM EDTA, 2 mM DTT, 0.01% Brij35, 0.5 mg/mL BSA). Luminescence was recorded with an Envision plate reader (PerkinElmer).
Dose titrations of inhibitors in 100% DMSO were combined with 0.36 nM CDK2/Cyclin E1 in reaction buffer. The mixtures were incubated for 60 minutes at 37° C. before the addition of ATP and Histone H1 substrate to initiate the kinase reaction. The final conditions were 0.18 nM CDK2/Cyclin E1, 100 μM ATP, and 1.5 μM Histone H1. The reactions were incubated at 37° C. for 90 minutes before being stopped with the addition of ADP-Glo reagent. This mixture was incubated at room temperature for 60 minutes before Kinase Detection Solution is added to generate luminescence. The stopped reactions were analyzed on an Envision plate reader. The conversion ratios were normalized to yield % activity, plotted against compound concentration, and fit to a four-parameter equation to determine the IC50 for each compound.

[2] = test system: Kuramochi cells; experiment: IncuCyte cell proliferation assay; type: cell-based
Protocol: IncuCyte® assay was used to measure the effect of disclosed compounds on cell proliferation. Fluorescent microscopy images of cells were taken immediately after compound treatment and 72 hours later. Image analysis software was used to obtain cell counts as a function of compound concentration. Kuramochi cells labeled with mApple-H2B were seeded on 384-well assay-ready plates. Plates were placed in an IncuCyte® (Sartorius) and scanned at 0 and 72 hours. IncuCyte® software was used to count the number of fluorescent nuclei in each well. The fold change in cell count from 0 to 72 hours in wells treated with increasing compounds concentrations (10 pts, 1/2 log dilution, 20 μM top concentration) was normalized to DMSO control wells. The normalized cell counts were fit with dose response curves and a […] was calculated.

[3] = read-out: ADPGLO (CDK2/E1-37C): IC50
[4] = Kuramochi cells labeled with mApple-H2B, cell count 0 to 72 hours, 20 μM top concentration, read-out: IncuCyte Kuramochi RB-WT: IC50

Compound | IC50 [1, 3] | IC50 [2, 4] | IC50 ([1]; ADPGLO (CDK2/E1-37C): IC50 (μM)) | IC50 ([2]; read-out: IncuCyte Kuramochi RB-WT: IC50 (μM))
C[C@@H](OCC12CCC(CC1)OC2)[C@H](NC(=O)[C@@H]1CN(C(=O)c2cnn(Cc3ccc(C(F)(F)F)cc3)c2)CC12CN(C(=O)C1(C(F)(F)F)CC1)C2)C(=O)N1CCC(c2ccc(OC(C)(C)C(=O)O)c(C(F)(F)F)c2)CC1 [Example I-4] | < 0.5 µM | > 20 µM |  | 
CC1(C)C[C@@H]1C(=O)N1CC2(CN(C(=O)c3cncs3)C[C@H]2C(=O)N2CCC[C@H](N(CC(=O)NS(C)(=O)=O)CC3CCCCC3)C2)C1 [Example I-72, 2-((cyclohexylmethyl)((S)-1-((S)-2-((S)-2,2-dimethylcyclopropane-1-carbonyl)-6-(thiazole-5-carbonyl)-2,6-diazaspiro[3.4]octane-8-carbonyl)piperidin-3-yl)amino)-N-(methylsulfonyl)acetamide] | > 10 µM | > 20 µM |  | 
C[C@@H](OCC1CCOCC1)[C@H](NC(=O)[C@@H]1CN(C(=O)c2cnc(O)cn2)CC12CN(C(=O)C1(C(F)(F)F)CC1)C2)C(=O)N1CCC(C(F)(F)F)CC1 [Example I-78, (S)-6-(5-hydroxypyrazine-2-carbonyl)-N-((2S,3R)-1-oxo-3-((tetrahydro-2H-pyran-4-yl)methoxy)-1-(4-(trifluoromethyl)piperidin-1-yl)butan-2-yl)-2-(1-(trifluoromethyl)cyclopropane-1-carbonyl)-2,6-diazaspiro[3.4]octane-8-carboxamide] | < 0.5 µM | > 20 µM |  | 
COC(=O)c1ccc([C@H](COCC23CCC(CC2)OC3)NC(=O)C2CN(C(=O)c3cnn(Cc4ccc(C#N)cc4)c3)CC23CN(C(=O)C2(C(F)(F)F)CC2)C3)cc1 (stereo partly drawn) [Example I-24, methyl 4-((1R)-2-((2-oxabicyclo[2.2.2]octan-4-yl)methoxy)-1-(6-(1-(4-cyanobenzyl)-1H-pyrazole-4-carbonyl)-2-(1-(trifluoromethyl)cyclopropane-1-carbonyl)-2,6-diazaspiro[3.4]octane-8-carboxamido)ethyl)benzoate] | 5 to 10 µM | > 20 µM |  | 
C[C@@H](OCC12CCC(CC1)OC2)[C@H](NC(=O)[C@@H]1CN(C(=O)c2cnn(CC3CCNCC3)c2)CC12CN(C(=O)C1(C(F)(F)F)CC1)C2)C(=O)N1CCC(c2ccccc2C(=O)O)CC1 [Example I-101] | 0.5 to 5 µM | > 20 µM |  | 
COC(=O)CCNC(=O)[C@@H](NC(=O)[C@@H]1CN(C(=O)c2cnn(Cc3ccc(F)cc3)c2)CC12CN(C(=O)C1(C(F)(F)F)CC1)C2)[C@@H](C)OCC12CCC(CC1)OC2 [Example I-111, Methyl 3-((2S,3R)-3-((2-oxabicyclo[2.2.2]octan-4-yl)methoxy)-2-((S)-6-(1-(4-fluorobenzyl)-1H-pyrazole-4-carbonyl)-2-(1-(trifluoromethyl)cyclopropane-1-carbonyl)-2,6-diazaspiro[3.4]octane-8-carboxamido)butanamido)propanoate] | < 0.5 µM | > 20 µM |  | 
C[C@@H](OCC1CCOCC1)[C@H](NC(=O)C1CN(C(=O)c2cnn(Cc3ccc(C(F)(F)F)cc3)c2)CC12CN(C(=O)C1(C(F)(F)F)CC1)C2)C(=O)N1CCC(c2ccc(C(=O)O)cc2)CC1 (stereo in doubt) [I-64 2nd, 4-(1-(O-((tetrahydro-2H-pyran-4-yl)methyl)-N—((S)-6-(1-(4-(trifluoromethyl)benzyl)-1H-pyrazole-4-carbonyl)-2-(1-(trifluoromethyl)cyclopropane-1-carbonyl)-2,6-diazaspiro[3.4]octane-8-carbonyl)-L-threonyl)piperidin-4-yl)benzoic acid] | > 10 µM | > 20 µM |  | 
C[C@@H](OCC1(C(=O)O)CCCCC1)[C@H](NC(=O)[C@@H]1CN(C(=O)c2cnn(Cc3ccc(C(F)(F)F)cc3)c2)CC12CN(C(=O)C1(C(F)(F)F)CC1)C2)C(=O)N1CCC(c2nccs2)CC1 [Example I-76, 1-((((2R,3S)-4-oxo-4-(4-(thiazol-2-yl)piperidin-1-yl)-3-((S)-6-(1-(4-(trifluoromethyl)benzyl)-1H-pyrazole-4-carbonyl)-2-(1-(trifluoromethyl)cyclopropanecarbonyl)-2,6-diazaspiro[3.4]octane-8-carboxamido)butan-2-yl)oxy)methyl)cyclohexanecarboxylic acid] | 5 to 10 µM |  |  | 
C[C@@H](OCC12CCC(CC1)OC2)[C@H](NC(=O)[C@@H]1CN(C(=O)c2cnn(Cc3ccc(C(F)(F)F)cc3)c2)CC12CN(C(=O)C1(C(F)(F)F)CC1)C2)C(=O)NS(=O)(=O)c1ccc(F)cc1 [Example I-85, (S)—N-((2S,3R)-3-((2-oxabicyclo[2.2.2]octan-4-yl)methoxy)-1-((4-fluorophenyl)sulfonamido)-1-oxobutan-2-yl)-6-(1-(4-(trifluoromethyl)benzyl)-1H-pyrazole-4-carbonyl)-2-(1-(trifluoromethyl)cyclopropane-1-carbonyl)-2,6-diazaspiro[3.4]octane-8-carboxamide] | < 0.5 µM | > 20 µM |  | 
C[C@@H](OCC12CCC(CC1)OC2)[C@H](NC(=O)[C@@H]1CN(C(=O)c2cnn(Cc3ccc(C(F)(F)F)cc3)c2)CC12CN(C(=O)C1(C(F)(F)F)CC1)C2)C(=O)N1CCC(c2ccccc2C(=O)O)CC1 [Example I-3, 2-(1-(O-((2-oxabicyclo[2.2.2]octan-4-yl)methyl)-N—((S)-6-(1-(4-(trifluoromethyl)benzyl)-1H-pyrazole-4-carbonyl)-2-(1-(trifluoromethyl)cyclopropane-1-carbonyl)-2,6-diazaspiro[3.4]octane-8-carbonyl)-L-threonyl)piperidin-4-yl)benzoic acid] | < 0.5 µM | 0.5 to 5 µM |  | 
C[C@@H](OCC12CCC(CC1)OC2)[C@H](NC(=O)[C@@H]1CN(C(=O)c2cncs2)CC12CN(C(=O)C1(C(F)(F)F)CC1)C2)C(=O)N1CCC(c2nccs2)CC1 [Example I-34, (S)—N-((2S,3R)-3-((2-oxabicyclo[2.2.2]octan-4-yl)methoxy)-1-oxo-1-(4-(thiazol-2-yl)piperidin-1-yl)butan-2-yl)-6-(thiazole-5-carbonyl)-2-(1-(trifluoromethyl)cyclopropane-1-carbonyl)-2,6-diazaspiro[3.4]octane-8-carboxamide] | < 0.5 µM | 0.5 to 5 µM |  | 
C[C@@H](OCC1(C(F)(F)F)CC1)[C@H](NC(=O)[C@@H]1CN(C(=O)c2cnn(Cc3ccc(C(F)(F)F)cc3)c2)CC12CN(C(=O)C1(C(F)(F)F)CC1)C2)C(=O)N1CCC(c2nccs2)CC1 [Example I-80, (S)—N-((2S,3R)-1-oxo-1-(4-(thiazol-2-yl)piperidin-1-yl)-3-((1-(trifluoromethyl)cyclopropyl)methoxy)butan-2-yl)-6-(1-(4-(trifluoromethyl)benzyl)-1H-pyrazole-4-carbonyl)-2-(1-(trifluoromethyl)cyclopropane-1-carbonyl)-2,6-diazaspiro[3.4]octane-8-carboxamide] | 0.5 to 5 µM | 0.5 to 5 µM |  | 
CC1(C)C[C@@H]1C(=O)N1CC2(CN(C(=O)c3cncs3)C[C@H]2C(=O)N2CCN(CC3CCCCC3)C(CC(=O)NS(C)(=O)=O)C2)C1 (single isomer, unassigned) [Example I-95] | > 10 µM | > 20 µM |  | 
COP(=O)(CCNC(=O)[C@@H](NC(=O)[C@@H]1CN(C(=O)c2cnn(Cc3ccccc3)c2)CC12CN(C(=O)[C@H]1CC1(C)C)C2)[C@@H](C)OCC1CCCCC1)OC [Example I-27] |  |  | < 0.5 µM | 0.5 to 5 µM
C[C@@H](OCC12CCC(CC1)OC2)[C@@H](CN1CCC(C(=O)O)CC1)NC(=O)[C@@H]1CN(C(=O)c2cnn(Cc3ccc(C(F)(F)F)cc3)c2)CC12CN(C(=O)C1(C(F)(F)F)CC1)C2 [Example I-97, 1-((2R,3R)-3-((2-oxabicyclo[2.2.2]octan-4-yl)methoxy)-2-((S)-6-(1-(4-(trifluoromethyl)benzyl)-1H-pyrazole-4-carbonyl)-2-(1-(trifluoromethyl)cyclopropane-1-carbonyl)-2,6-diazaspiro[3.4]octane-8-carboxamido)butyl)piperidine-4-carboxylic acid] | > 10 µM |  |  | 
C[C@H](OCC12CCC(CC1)OC2)[C@@H](NC(=O)[C@@H]1CN(C(=O)c2cnc(O)cn2)CC12CN(C(=O)C1(C(F)(F)F)CC1)C2)C(=O)N1CCC(c2ccc(C(F)(F)F)c(C(=O)O)c2)CC1 [Example I-82, 5-(1-(O-((2-oxabicyclo[2.2.2]octan-4-yl)methyl)-N—((S)-6-(5-hydroxypyrazine-2-carbonyl)-2-(1-(trifluoromethyl)cyclopropane-1-carbonyl)-2,6-diazaspiro[3.4]octane-8-carbonyl)-D-threonyl)piperidin-4-yl)-2-(trifluoromethyl)benzoic acid] |  | > 20 µM |  | 
